The text below walks through data of patent EP0316592A2, “3'-Fluoro-2',3'-dideoxyuridine, and its therapeutic application” (Stichting REGA V.Z.W., priority 1987, dated 1989).

The subject of one data set is Molt/4F cells. Kind of data set: Tritium release from (5-3H)dUrd or (5-3H)dCyd in intact Molt/4F cells. The conditions noted are these: Homo sapiens. The data set is classed as cell-based. As for the experimental part: Briefly, 10⁷ Molt/4F cells/ml were preincubated with an appropriate amount of test compound for 15 min at 37°C. After this incubation period, radiolabelled (5-³H)dUrd or (5-³H)dCyd (100 µCi/ml; 0.1 µM) were added, and at various times (0, 15, 30, 45, 60 min), 100 µl of the reaction mixture was withdrawn, and mixed with 500 µl of a cold suspension of carbon black (100 mg/ml) in 5% TCA. After centrifugation at 1000 g for 10 min, the supernatants were analysed for radioactivity.

Data set [1] relates to Moloney murine sarcoma virus (MSV). Kind of data set: Inhibition of transformation of C3H cells by MSV. It is filed as cell-based. The following applies: Moloney murine sarcoma virus, 144 h; 50% reduction of transformation of C3H cells by MSV, 6 days; read-out: MSV-induced cyto-pathogenicity ED50. As for the experimental part: Moloney murine sarcoma virus (MSV) was prepared from tumors induced by in vivo infection of 10 day-old NMRI mice according to the procedure described by De Clercq et al (Proc. Soc. Exp. Biol. Med. 137, 590-594 (1971)).
ddUrd and the substituted pymiridine 2′,3′-dideoxynucleoside analogues were examined for their inhibitory effect on the transformation of mouse embryo C3H fibroblasts by Moloney murine sarcoma virus (MSV).
C3H cells were seeded at 20,000 cells per ml into wells of Costar Tissue Culture Cluster plates (48 wells per plate) and grown to confluency. Cell cultures were then infected by 150 foci-forming units of MSV during 90 min, whereafter the culture medium was replaced by 1 ml fresh medium containing different concentrations of the test compound. After 6 days, the transformation of the cell cultures was examined microscopically.

Another data set concerns C3H cells. Kind of data set: Cytotoxicity for C3H cells (alteration of normal cell morphology). The data set is classed as cell-based, mouse.
The next data set concerns H9. Kind of data set: Cytostatic effect (cell proliferation, Coulter count). The following applies: Homo sapiens, cell number reduced by 50%, 68-72 hours, read-out: ID50 H9. The data set is classed as cell-based. As for the experimental part:
(§1) Raji/0 cells and Raji/TK⁻ (a thymidine (dThd) kinasedeficient mutant cell line derived from wild-type Raji/0 cells, were grown in 75 cm² plastic tissue culture flasks (International Medical, Brussels, Belgium), in Eagle's minimal essential medium, supplemented with 10% (v/v) inactivated foetal calf serum (Gibco, Glasgow, Scotland, U.K.), 2 mM L-glutamine (Flow Laboratories, Irvine, Scotland, U.K.) and 1% THM (5 mM Tes, 7.5 mM Hepes and 5 mM (MOPS) buffer ([…]). The Raji/0 and Raji/TK⁻ cells were characterized according to J. Balzarini et al (Biochem. Pharmacol. 31, 1089-1095 (1982)). Molt/4F, CEM and H9 cells were grown in Eagle's minimal essential medium, supplemented with 10% (v/v) inactivated foetal calf serum and 2 mM L-glutamine. MT4 cells were cultivated in RPMI 1640 medium (Gibco) containing 20 mM Hepes buffer, 10% (v/v) inactivated foetal calf serum (Gibco) and 2 mM L-glutamine (Flow Laboratories).
(§2) All assays were performed in flat bottom Microtest III Plates (96 wells) (Falcon) as previously described by E. De Clercq et al (Mol. Pharmacol. 19, 321-330 (1981)). Briefly, the cells were suspended in growth medium and added to the microplate wells at a density of 7.5 x 10⁴ cells/well (200 µ1) in the presence of varying concentrations of the test compounds. The cells were then allowed to proliferate for 68-72 hours at 37°C in a humidified, CO₂-controlled atmosphere. At the end of the incubation period, the cells were counted with a Coulter Counter (Coulter Electronics Ltd., Harpenden Herts, U.K.). The 50% inhibitory dose (ID₅₀) was defined as the concentration of compound that reduced the number of cells by 50%.

In a further data set the test system is CEM. The data set is described as above. It is filed as cell-based. The following applies: Homo sapiens, CCRF-CEM; cell number reduced by 50%, 68-72 hours; read-out: ID50 CEM. As for the experimental part: as §1, §2
Another data set deals with Molt/4F. The description is as above. It is filed as cell-based. The following applies: Homo sapiens, cell number reduced by 50%, 68-72 hours, read-out: ID50 Molt/4F. The method, then:
as §1, §2

Another data set has as its system MT4. The description is as above. The data set is classed as cell-based. The following applies: Homo sapiens, cell number reduced by 50%, 68-72 hours, read-out: ID50 MT4. As for the experimental part:
as §1, §2

Another data set deals with Raji/TK-. Described as above. It is filed as cell-based. The conditions noted are these: Homo sapiens, cell number reduced by 50%, 68-72 hours, read-out: ID50 Raji/TK-. As for the experimental part: as §1, §2
The subject of another data set is Raji/0. The data set is described as above. The data set is classed as cell-based. The following applies: Homo sapiens, cell number reduced by 50%, 68-72 hours, read-out: ID50 Raji/0. As for the experimental part:
as §1, §2

The next data set relates to MT4 cells. The data set is described as follows: Cytotoxicity for non-infected MT4 cells (viable cell count). The method, then:
Then 100 µl of the infected cell suspension was added to 100 µl of an appropriate dilution of test compound in 200 µ1 wells of a Flat Bottom Microtest III Plate (Falcon, Becton Dickinson, Oxnard, CA, USA) (i.e. 40 CCID₅₀ HIV/200 µ1 well/5 x 10⁴ cells), and further incubated at 37°C in a CO₂-controlled humidified atmosphere.

A further data set deals with MOLT/4F CELL DNA. Kind of data set: Incorporation of radiolabelled precursors into Molt/4F cell DNA. The conditions noted are these: Homo sapiens, Molt/4F cell DNA, 20-24 hours. It is filed as cell-based, human. As for the experimental part: The impact of ddUrd and the 3′-fluoro- and 3′-azido-substituted pyrimidine 2′,3′-dideoxynucleoside analogues on cellular DNA biosynthesis was evaluated by monitoring the effect of these compounds on the incorporation of radio- labelled (1′,2′-³H)dUrd (specific radioactivity 27 Ci/mmol), (methyl-³H)dThd (specific radioactivity […]) and (5-³H)dCyd (specific radioactivity 20 Ci/mmol) into DNA of Molt/4F cells.
The incorporation of radiolabelled precursors into Molt/4F cellular DNA was measured in microtest III plates (96 wells) (Flacon) as previously described (J. Balzarini et al, Mol. Pharmacol. 23, 175-181 (1983)). Shortly, to each well of the microplate were added 10⁵ Molt/4F cells and 0.25 µCi of (1′,2′-³H)dUrd, (methyl³H)dThd or (5-³H)dCyd. The cells were allowed to proliferate for 20-24 hours at 37°C in a humidified CO₂-controlled atmosphere. At the end of this incubation period, the contents of the wells (200 µ1) were brought onto 25-mm glass-fibre filters (type A/E, Gelman Instrument Company, Ann Arbor, Mich., USA) and washed twice with cold phosphate-buffered saline, twice with cold 10% trichloroacetic acid (TCA), twice with cold 5% TCA, once with ethanol and once with ether. The filters were then assayed for radioactivity in a toluene-based scintillant.

SMILES strings stand for the structures. Where two headings read alike, the source gives them in different places.

On to `O=c1ccn([C@H]2CC[C@@H](CO)O2)c(=O)[nH]1` [ddUrd, 2′-3′-dideoxyuridine], for which the IC50 was over 250 µM in the data set on Molt/4F cells (read-out: ID50 tritium release from (5-3H)dCyd); over 250 µM in the data set on Molt/4F cells (read-out: ID50 tritium release from (5-3H)dUrd); over 1000 µM with H9; over 1000 µM in the data set on CEM; over 1000 µM in the data set on Molt/4F; at least 1000 µM in the data set on MT4. Besides, the IC50 in the data set with Raji/TK-, in the data set with Raji/0, with MOLT/4F CELL DNA (read-out: ID50 (1',2'-3H)dUrd incorporation), in the data set on MOLT/4F CELL DNA (read-out: ID50 (5-3H)dCyd incorporation) and in the data set with MOLT/4F CELL DNA (read-out: ID50 (methyl-3H)dThd incorporation) was over 1000 µM throughout. Also, the EC50 in data set [1] was over 400 µM. For the same molecule, in the data set on C3H cells, the “MSV-induced cyto-pathogenicity CD50” value was over 400 µM. The “HIV-induced cyto-pathogenicity CD50” value with MT4 cells was over 625 µM.
